In patent EP1100482B1, “USE OF CALIX(N)ARENES IN THE MANUFACTURE OF A MEDICAMENT FOR TREATING FIBROTIC DISEASES” (CENTRE NATIONAL DE LA RECHERCHE SCIENTIFIQUE, priority 1998, dated 2000):
Positions count from the first letter of the chain named.

Assays:
[1] = biological target: T1, lysyl-oxydase d'aorte bovine (Bos taurus, UniProt P33072); experiment: Lysyl oxidase activity assay (tritium release from 3H elastin); format: biochemical; conditions: partially purified lysyl oxidase from fetal bovine aorta; 3H élastine substrate; 37°C; pH 8,0; read-out: concentration nécessaire pour inhiber 50% de l'activité de lysyl-oxydase
T1 construct: De l'aorte bovine foetale broyée est rincée par du tampon NaCI 0,12M; from tissue; host or cells: fetal bovine aorta
T1 sequence (P33072 170-418): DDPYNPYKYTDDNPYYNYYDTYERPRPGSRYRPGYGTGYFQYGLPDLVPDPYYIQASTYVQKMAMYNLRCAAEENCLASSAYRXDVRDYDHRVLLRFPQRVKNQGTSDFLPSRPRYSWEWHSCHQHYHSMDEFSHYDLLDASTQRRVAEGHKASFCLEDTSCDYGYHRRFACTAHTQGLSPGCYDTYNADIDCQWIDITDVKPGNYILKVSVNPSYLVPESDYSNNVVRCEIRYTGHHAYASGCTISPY
Experimental: 1. Purification partielle de la lysyl-oxydase d'aorte bovine
Ce protocole est inspiré de celui de (WILLIAMS et KAGAN, Anal. Biochem. 149, 430-437, 1985), et de (KAGAN et al. Biochem. J. 177, 203-214 (1979)), qui a été sensiblement modifié.
Toutes les étapes sont effectuées à 4 °C ou dans la glace.
De l'aorte bovine foetale broyée est rincée par du tampon NaCI 0,12M, NaPi 16 mM, pH 7,7 puis par du NaPi 16 mM, pH 7,7 (tampon PB). La lysyl oxydase est extraite du résidu par de l'urée 4 M (concentration finale dans le tampon PB). Le surnageant obtenu après centrifugation à 10.000 g pendant 30 minutes est dilué deux fois dans du PB puis incubé avec de la DEAE-cellulose pendant 3 heures. La résine est mise en colonne et rincée successivement par du tampon PB contenant de l'urée 2M , du tampon PB puis du tampon PB contenant du NaCI 0,4 M.
La lysyl oxydase est éluée à partir de la DEAE-cellulose par de l'urée 6M dans du tampon PB. Les fractions présentant une absorbance à 280 nm sont réunies et dialysées pendant une nuit contre du tampon PB en présence de gel de Bleu de Cibacron (Biorad). Le gel est ensuite mis en colonne, et après des rinçages successifs par du tampon PB, du tampon PB-NaCI 1M et à nouveau du tampon PB, la lysyl oxydase est éluée du gel de Bleu de Cibacron par de l'urée 6 M dans du tampon PB. […]

lysyl oxydase = biological target: T2, lysyl oxydase (Homo sapiens, UniProt P28300); conditions: specific lysyl oxidase inhibitor described in the literature (Kagan, 1994); cited from earlier work
T2 sequence (P28300 169-417): T1 sequence (P33072 170-418) with T10S, S29G, P49A, A64S, S80T, X84A, S142N, N188G, S224T, E231D

| Compound | IC50 [1] [mM] | Ki (lysyl oxydase) [µM] |
| --- | --- | --- |
| O=S(=O)(O)c1cc2c(O)c(c1)Cc1cc(S(=O)(=O)O)cc(c1O)Cc1cc(S(=O)(=O)O)cc(c1O)Cc1cc(S(=O)(=O)O)cc(c1O)Cc1cc(S(=O)(=O)O)cc(c1O)Cc1cc(S(=O)(=O)O)cc(c1O)C2 | 1.2 |  |
| N#CCCN [βAPN, β amino-propionitrile] |  | 6 |
